Here are results for 3 molecules from patent US11717511B2, “Pharmaceutical composition comprising derivative compound of 1,2-naphthoquinone for preventing or treating solid cancer or blood cancer” (HUEN Co., Ltd., priority 2018, dated 2023).

Assay [1] deals with MCF7 (breast adenocarcinoma) cells. Put plainly: Cell viability of solid cancer cells, WST assay, MCF7. The format is cell-based. The settings on record: Homo sapiens, 1-30 μM, 6 hours. An excerpt:
(§1) To investigate availability as a medicine for solid cancer, A549 cell line obtained from a -person with lung carcinoma, HeLa cell line obtained from a person with cervix adenocarcinoma, HepG2 cell line obtained from a child with hepatocellular carcinoma, MCF7 cell line obtained from a person with breast adenocarcinoma, and Beas-2B cell line obtained from normal lung for comparison with solid cancer cell line were used.
(§2) A549 (lung carcinoma), HeLa (cervix adenocarcinoma), HepG2 (hepatocellular carcinoma), MCF7 (breast adenocarcinoma), and Beas-2B (normal lung) cell lines were incubated in DMEM medium containing 10% FBS at 37 °C in a 5% CO2 incubator, and subcultured every 2 days before use in the test.
(§3) A549 (lung carcinoma), HeLa (cervix adenocarcinoma), HepG2 (hepatocellular carcinoma), MCF7 (breast adenocarcinoma), and Beas-2B (normal lung) cells were seeded at 1×10^4 cells/well in a 96-well plate, and then for cell stabilization, the cells were incubated at 37 °C in a 5% CO2 incubator for 16 hours or longer. Thereafter, the cells were treated with compounds 99, 163, 191, and 192 (1-30 μM) out of the compounds synthesized in Example 1-1, and then incubated for 6 hours. DMSO and β-lapachone were used as a control. After 4 hours of incubation, 10 μl of WST solution was added to the cells, followed by incubation for 2 hours, and then the absorbance at 450 nm was measured by a multi-scan machine. The cell viability of A549 (lung carcinoma), HeLa (cervix adenocarcinoma), HepG2 (hepatocellular carcinoma), MCF7 (breast adenocarcinoma), and Beas-2B (normal lung) cells is shown in Table 5 and FIG. 5.

Assay [2] concerns HeLa (cervix adenocarcinoma) cells. Put plainly: Cell viability of solid cancer cells, WST assay, HeLa. The format is cell-based. The settings on record: Homo sapiens, 1-30 μM, 6 hours.
Description: as §1, §2, §3

Assay [3] has as its system K562 cells (chronic myeloid leukemia). The experiment in a line: Cell viability of K562 cells, WST assay. The format is cell-based, human. To be noted: 0.1-5 μM. As for the experimental part: K562 cells obtained from a -person with chronic myeloid leukemia were incubated in RPMI medium containing 10% fetal bovine serum (FBS) at 37 °C in a 5% CO2 incubator, and subcultured every 2 days before use in the test.
K562 cells incubated in Example 3-1 were seeded at 1×10^5 cells/well in a 96-well plate, and then for cell stabilization, the cells were incubated at 37 °C in a 5% CO2 incubator for 16 hours or longer. Thereafter, the cells were treated with compounds 99, 163, 191, and 192 (0.1-5 μM) out of the compounds synthesized in Example 1-1, and then incubated for 4 hours. DMSO was used as a control. After 4 hours of incubation, 10 μl of WST solution was added to the cells, followed by incubation for 2 hours, and then the absorbance at 450 nm was measured by a multi-scan machine.

Assay [4] has as its system KG1α cells (refractory acute myeloid leukemia). Put plainly: Cell viability of KG1α cells, WST assay. The format is cell-based, human. To be noted: 0.1-3 μM. As for the experimental part: Acute leukemia has been identified to have a wide variety of causative factors and a variety of cell lines have also been established. To investigate the availability as a wide-spectrum medicine but not a medicine for a particular type of acute leukemia, KG1α cells were constructed by selecting only cells having a stem cell phenotype from KG1 cells, which are a cell line obtained from a -person with acute myeloid leukemia, and then used.
KG1α cells were incubated in IMDM containing 20% fetal bovine serum (FBS). All the cells were incubated at 37 °C in a 5% CO2 incubator, and subcultured every 2 or 3 days before use in the test.
KG1α cells, which have resistance to idarubicin and cytarabine, which are acute myeloid leukemia medicines, are refractory acute myeloid leukemia (AML) cells. KG1α cells incubated in Example 2-1 were seeded at 1×10^5 cells/well in a 96-well plate, and then for cell stabilization, the cells were incubated at 37 °C in a 5% CO2 incubator for 16 hours or longer. Thereafter, the cells were treated with compounds 99 and 163 (0.1-3 μM) shown in Table 4 out of the compounds synthesized in Example 1, and then incubated for 24 hours. […] After 24 hours, the cells were treated with 10 μl of WST solution and then incubated for 2 hours, and then the absorbance at 450 nm was measured by a multi-scan machine.

The test system of assay [5] is HepG2 (hepatocellular carcinoma) cells. Put plainly: Cell viability of solid cancer cells, WST assay, HepG2. The format is cell-based. The settings on record: Homo sapiens, 1-30 μM, 6 hours.
Description: as §1, §2, §3

In assay [6] the test system is A549 (lung carcinoma) cells. The experiment in a line: Cell viability of solid cancer cells, WST assay, A549. The format is cell-based. To be noted: Homo sapiens, 1-30 μM, 6 hours.
Description: as §1, §2, §3

One may read the IC50 as the point on the concentration scale where inhibition reaches its midpoint. A low value points to greater potency in that assay.

In the case of `CC(C)c1nc2c(s1)C(=O)C(=O)c1ccccc1-2` [Compound 163], the half-maximal inhibitory concentration (IC50) in assay [1] was 13 µM; in assay [2], 4.6 µM; in assay [3] (Homo sapiens, K562, 4 h) it was 2.1 µM; in assay [4] (24 hours) it was 0.9 µM; in assay [4] (Homo sapiens, KG-1, 24 h) it was 0.5 to 1 µM; in assay [5] it was 14.1 µM. Also, in assay [6], the IC50 stood at 6.1 µM.

Consider `Cn1nc2c(n1)-c1ccccc1C(=O)C2=O` [Compound 191], for which the IC50 in assay [1] was 14.8 µM; in assay [2], 6.6 µM; in assay [3] (4 hours), 1.6 µM; in assay [3] (Homo sapiens, K562, 4 h), 1 to 2 µM; in assay [5] it was 13.8 µM; in assay [6], 8.4 µM.

Consider `Cn1nnc2c1C(=O)C(=O)c1ccccc1-2` [Compound 192], for which the IC50 in assay [1] was 11.7 µM; in assay [2], 4.4 µM; in assay [3] (4 hours), 1.2 µM; in assay [3] (Homo sapiens, K562, 4 h), 1 to 2 µM; in assay [5] it was 12.2 µM; in assay [6] it was 5 µM.
